pIC50: −log10 of the molar value. Each block holds one compound with its values, some of them ahead of it.
Tests used:
[1] = biological target: tyrosinase monophenol monooxygenase (MPMO) (Agaricus bisporus, UniProt C7FF04); assay: biochemical
Experimental: (§1) The substrate, L-tyrosine, is transformed by the monophenol monooxygenase functional group into L-DOPA, itself transformed by the tyrosinase's polyphenol oxidase functional group into dopaquinone. The latter will auto-oxidize into dopachrome, which is measured by spectrophotometry at 490 nm.
(§2) More precisely, it is global tyrosinase activity (MPMOg) that is measured since ultimately it is dopachrome that is assayed. Thus, the products tested in terms of MPMOg (measurement of activity on PPO and MPMO) can accumulate the inhibition of the 2 functional groups; • inhibiting only the MPMO functional group in the strict sense (transformation of tyrosine into DOPA) in addition to the PPO test, • inhibiting only PPO.

B16-F10 cells = assay: Assay of melanin in B16-F10 cells stimulated with α-MSH; format: cell-based, murine; conditions: 72 hours, 0.1 μM α-MSH; for pIC50: Mus musculus, B16-F10, read-out: Melanin assay, in strains B16F10, IC50; for Melanin assay, in strains B16F10 (%): negative value indicates inhibition
Experimental: This test measures melanin synthesis using a colorimetric assay on a murine melanoma cell line: B16-F10. […] B16-F10 cells are seeded in 96-well plates in DMEM medium supplemented with fetal calf serum (FCS) and then incubated for 24 hours at 37° C., 5% CO2. […] Each concentration of active agent is tested at least in triplicate. […] The total proteins are assayed in the lysate and the results are expressed in mg melanin/mg proteins: The percentage of activity is calculated as follows: A negative value indicates inhibition, whereas a positive value indicates induction of melanin synthesis. Biological Material: • B16-F10 cell line between […] (murine melanocytes) (ATCC, CRL-6475)

[2] = biological target: tyrosinase polyphenol oxidase (PPO) (Agaricus bisporus, UniProt C7FF04); assay: Tyrosinase inhibition test, polyphenol oxidase (PPO) function, reference molecules; format: biochemical, mushroom; conditions: at 25 μM
Sequence of tyrosinase polyphenol oxidase (PPO) (C7FF04 1-392 limits assumed): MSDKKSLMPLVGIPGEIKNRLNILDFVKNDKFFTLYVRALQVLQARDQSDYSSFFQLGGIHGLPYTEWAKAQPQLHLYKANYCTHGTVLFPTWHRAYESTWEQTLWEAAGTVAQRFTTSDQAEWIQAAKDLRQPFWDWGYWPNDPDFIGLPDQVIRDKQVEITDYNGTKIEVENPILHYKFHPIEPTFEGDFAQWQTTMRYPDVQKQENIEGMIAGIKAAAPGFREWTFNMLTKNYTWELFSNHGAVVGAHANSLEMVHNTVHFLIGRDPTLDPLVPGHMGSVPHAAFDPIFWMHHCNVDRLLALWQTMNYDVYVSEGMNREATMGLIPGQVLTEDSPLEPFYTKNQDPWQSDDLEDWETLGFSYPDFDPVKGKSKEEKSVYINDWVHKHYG
Experimental: as §1, §2

[3] = Antioxidant ability using chemiluminescence (Photochem, Analytik Jena); conditions: for μg of sample for 1 μg of Trolox: trapping of superoxide anions, chemiluminescence
Source text: This test is used to determine the antioxidant ability of the molecules. It is a method that generates free radicals by a photochemical signal. The intensity of the oxidation is 1000 times greater than that obtained under normal conditions.
Detection is by chemiluminescence. It enables the evaluation of water-soluble and lipid-soluble antioxidant molecules or extracts.
The results are expressed as equivalents of vitamin C or Trolox (6-hydroxy-2,5,7,8-tetramethylchroman-2-carboxylic acid), respectively. The sensitivity is on the order of the nanomole.
The antioxidant activity studied in this test represents the ability to specifically trap superoxide anions by chemiluminescence.
The quantified results are expressed in Trolox equivalents (standard), or “μg of product for 1 μg of Trolox.” This means that a quantity x of sample is needed to obtain activity equivalent to the activity detected for 1 μg of the standard. This represents antioxidant ability relative to a reference, which frees us from concern about the concentration tested.
The superoxide radical (O2°^−) is generated by a photochemical reaction: L+hv(UV)+O2→L*O2→L°^++O2°^− L*: luminol in the excited state L°^+: luminol radical
Some of the superoxide anions are quenched by the antioxidants. The remaining free radicals are quantified by chemiluminescence. L°^++O2°^−→N2+AP*^2−→AP^2−+hv (luminescence) AP*^2−: aminophthalate in the excited state

[4] = Solubility in aqueous phase; format: physicochemical; conditions: aqueous phase / aqueous acidic solution

Sequence of tyrosinase monophenol monooxygenase (MPMO) (C7FF04 1-392 limits assumed): as above

inhibition at 88 µM ([1]; read-out: % inhibition (MPMO)): 57%
pIC50 (B16-F10 cells): 3.80
Structure (SMILES): OC[C@H]1O[C@@H](Oc2ccc(O)cc2)[C@H](O)[C@@H](O)[C@@H]1O [Arbutin, reference compound]

Structure (SMILES): CCCC(c1cccs1)c1ccc(O)cc1O (stereo not drawn) [Compound 31, 4-(1-(thiophene-2-yl)butyl)benzene-1,3-diol]
Melanin assay, in strains B16F10 (%) (B16-F10 cells; at 10 μM): −50% at 10 μM

Structure (SMILES): N[C@@H](CCC(=O)N[C@@H](CS)C(=O)NCC(=O)O)C(=O)O [Reduced glutathione]
% inhibition (PPO) [2]: 55%
pIC50 ([1]; read-out: IC50 (MPMO), reference molecules for the test, MPMO): 5.70 to 6.00

pIC50 (B16-F10 cells): 2.62
Structure (SMILES): O=c1cc(CO)occ1O [Kojic acid, reference compound]

Structure (SMILES): CC(c1nccs1)c1ccc(O)cc1O (stereo not drawn) [Compound 5, 4-(1-(thiazol-2-yl)ethyl)benzene-1,3-diol]
μg of sample for 1 μg of Trolox [3]: 11.7 μg of sample for 1 μg of Trolox
Melanin assay, in strains B16F10 (%) (B16-F10 cells; at 20 μM): −33% at 20 μM

Solubility in aqueous phase [4]: insoluble in aqueous phase
Structure (SMILES): CC(c1ccccc1)c1ccc(O)cc1O (stereo not drawn) [4-(1-phenylethyl)benzene-1,3-diol, reference compound]

Structure (SMILES): CC(c1ccccn1)c1ccc(O)cc1O (stereo not drawn) [Compound 2, 4-(1-(pyridin-2-yl)ethyl)benzene-1,3-diol]
μg of sample for 1 μg of Trolox [3]: 10.4 μg of sample for 1 μg of Trolox
Melanin assay, in strains B16F10 (%) (B16-F10 cells; at 20 μM): −26% at 20 μM

melting point: 89.9 °C
Structure (SMILES): CC(C)CC(c1cccs1)c1ccc(O)cc1O (stereo not drawn) [Compound 28, 4-(3-methyl-1-(thiophene-2-yl)butyl)benzene-1,3-diol]
Melanin assay, in strains B16F10 (%) (B16-F10 cells; at 10 μM): −52% at 10 μM

Structure (SMILES): CC(c1ccsc1)c1ccc(O)cc1O (stereo not drawn) [Compound 4, 4-(1-(thiophene-3-yl)ethyl)benzene-1,3-diol]
μg of sample for 1 μg of Trolox [3]: 15.4 μg of sample for 1 μg of Trolox
Melanin assay, in strains B16F10 (%) (B16-F10 cells; at 20 μM): −52% at 20 μM

Structure (SMILES): O=C(O)CCCC[C@@H]1CCSS1 (racemic) [Lipoic acid, reference compound]
μg of sample for 1 μg of Trolox (scale used to interpret the results) ([3]; reference products of the interpretation scale): NEGATIVE

Structure (SMILES): CC(c1cccs1)c1ccc(O)cc1O (stereo not drawn) [Compound 1, 4-(1-(thiophene-2-yl)ethyl)benzene-1,3-diol]
μg of sample for 1 μg of Trolox [3]: 13.7 μg of sample for 1 μg of Trolox
Melanin assay, in strains B16F10 (%) (B16-F10 cells; at 20 μM): −50% at 20 μM

Structure (SMILES): CC(c1cccnc1)c1ccc(O)cc1O (stereo not drawn) [Compound 3, 4-(1-(pyridin-3-yl)ethyl)benzene-1,3-diol]
μg of sample for 1 μg of Trolox [3]: 8.7 μg of sample for 1 μg of Trolox
Melanin assay, in strains B16F10 (%) (B16-F10 cells; at 20 μM): −52% at 20 μM
Solubility in aqueous phase [4]: dissolve the active ingredient in aqueous acidic solution
